# Read-outs that look alike come from different tables or passages of the source.
# Key:
# C. elegans = C. elegans lifespan assays (liquid and plate); assay type: in vivo, Caenorhabditis elegans; conditions: for ILS at 60 µM / ILS at 66 µM: Caenorhabditis elegans; for O = Life span- extending scores in worms: score scale 0 to 2, 4 to 6 independent trials; for M = Lifespan-extending scores in worms: summary score
# [1] = tested on: phosphorylated γH2A.X and TP53BP1; assay: DNA damage marker analysis (immuno-staining); conditions: for activity at 10 µM: Homo sapiens, WI-38, 24 h; for P = Potential DNA-damaging / R = Potential DNA damaging: human, 24 h
# How it was run: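 Immunofluorescence read-out for phospho-γH2A.X (Ser-139) and phospho-TP53BP1 (Ser-1778), with DAPI nuclear stain and automated imaging at 10×. WI-38 cells (~8,000 per well) were exposed to small molecules for 24 h after 24 h of culture, with doxorubicin (300 nM, 24 h) or H2O2 (700 μM, 3 h) as positive damage controls.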
# [2] = tested on: PC12 cells expressing poly(Q)103-Htt-EGFP; assay: Poly(Q) toxicity & viability analysis (cellular model of Huntington's disease); assay type: cell-based, rat; conditions: for M = Huntington's poly-Q toxicity attenuation: score; for K = Huntington's poly-Q toxicity attenuation: summary score
# How it was run: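 Readout is CellTiter-Glo ATP content measured after 48 hrs. Cells are a PC12 line stably expressing inducible poly(Q)103-Htt-EGFP, where induction produces toxic aggregates.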
# FOXO3 = FOXO3 siRNA knockdown: dependency for H2O2-resistance; assay type: cell-based, human
# [3] = 60 μM, in liquid, wild type, with FuDR, 1.0 × 10^9 bacteria/ml, read-out: relative change of mean lifespan vs control, Trial 1
# [4] = 60 μM, in liquid, wild type, with FuDR, 2.5 × 10^9 bacteria/ml, read-out: relative change of mean lifespan vs control, Trial 2
# [5] = 60 μM, on plate, CF512 temperature-sensitive sterile animals, without FuDR, 1.0 × 10^11 bacteria/ml, read-out: relative change of mean lifespan vs control, Trial 4
# [6] = 60 μM, on plate, CF512 temperature-sensitive sterile animals, without FuDR, 2.0 × 10^10 bacteria/ml, read-out: relative change of mean lifespan vs control, Trial 3
# [7] = Assay 2(z), 1.0 × 10^9 bacteria/ml, wild type + FuDR (2012 July), read-out: Lifespan assay in liquid
# [8] = Assay 3(aa), 2.5 × 10^9 bacteria/ml, wild type + FuDR, read-out: Lifespan assay in liquid
# [9] = Assay 4(ab), 2.0 × 10^10 bacteria/ml, CF512 worms, no FuDR, read-out: Lifespan assay on plates
# [10] = Assay 5(ac), 1.0 × 10^11 bacteria/ml, CF512 worms, no FuDR, read-out: Lifespan assay on plates
# [11] = read-out: Experiment 1, H2A.X-P DNA damage foci staining (no H2O2 stress treatment), at 10 uM
# [12] = read-out: Experiment 2, H2A.X-P DNA damage foci staining (no H2O2 stress treatment), at 10 uM
# [13] = read-out: Experiment 2, H2A.X-P DNA damage foci staining (under H2O2 stress treatment), at 10 uM
# [14] = read-out: Experiment 2, TP53BP1-P DNA damage foci staining (no H2O2 stress treatment), at 10 uM
# [15] = read-out: Experiment 2, TP53BP1-P DNA damage foci staining (under H2O2 stress treatment), at 10 uM
SMILES,ILS at 60 µM (C. elegans; [3]) [%],ILS at 60 µM (C. elegans; [4]) [%],ILS at 60 µM (C. elegans; [5]) [%],ILS at 60 µM (C. elegans; [6]) [%],ILS at 66 µM (C. elegans; [7]) [%],ILS at 66 µM (C. elegans; [8]) [%],ILS at 66 µM (C. elegans; [9]) [%],O = Life span- extending scores in worms (C. elegans),M = Lifespan-extending scores in worms (C. elegans),"activity at 10 µM [1, 11] [%]","activity at 10 µM [1, 12] [%]","activity at 10 µM [1, 13] [%]","activity at 10 µM [1, 14] [%]","activity at 10 µM [1, 15] [%]",P = Potential DNA-damaging [1],R = Potential DNA damaging [1],M = Huntington's poly-Q toxicity attenuation [2],K = Huntington's poly-Q toxicity attenuation [2],I = FOXO3-dependency for H2O2-resistance (FOXO3; score),I = FOXO3-dependency for H2O2-resistance (FOXO3; summary score),also measured
O=C(/C(=C/c1ccc(Cl)cc1)c1nc2ccccc2[nH]1)c1ccccc1 [Gr-4D],50.8,9,11.3,22.2,50.8,9,22.2,2 (2 for observed in more than 2 trials),2 (2 for observed in more than 2 trials),103,49.6,123,136,388,0,0,0,0,0,0,"relative change of mean lifespan vs control, Trial 6 (confirmative) (C. elegans; 60 μM, on plate, temperature-sensitive sterile animals, without FuDR, 1.0 × 10^11 bacteria/ml): +11.1%; relative change of mean lifespan vs control, Trial 5 (confirmative) (C. elegans; 60 μM, on plate, temperature-sensitive sterile animals, without FuDR, 2.0 × 10^10 bacteria/ml): +39.4%; Lifespan, average increase (C. elegans; 4 or more trials): 24.0%; ILS at 66 µM (C. elegans; [10]): 11.3%; ILS at 66 µM (C. elegans; Assay 6(ad), 2.0 × 10^10 bacteria/ml, CF512 worms, no FuDR, read-out: Lifespan assay on plates): 39.4%; ILS at 66 µM (C. elegans; Assay 7(ae), 1.0 × 10^11 bacteria/ml, CF512 worms, no FuDR, read-out: Lifespan assay on plates): 11.1%; Lifespan extension of C. elegans (C. elegans; across independent trials): ≤ 50%; Extension of C. elegans' lifespan (qualitative) (C. elegans; in at least 3 to 4 trials, group range ~10% to ~50%): could extend animal's lifespan; Trials with lifespan extension (C. elegans; positive of total trials): 4 of 4; Lifespan, mean (FIG. 6B) (C. elegans; temperature-sensitive sterile rollers, on plate, without FuDR, 25° C. then ~22° C., control 18.4±0.4): 22.5±0.4; Lifespan increase (FIG. 6A) (C. elegans; wild-type, in liquid, with FuDR, 20° C., ~60 μM): ~51.2%; Lifespan, mean±SD (FIG. 6A) (C. elegans; wild-type, in liquid, with FuDR, 20° C., ~60 μM, control 21.1±0.5): 31.9±1.1; FOXO3-dependency for H2O2-resistance, at 10 uM (experiment 3) - with & without H2O2 (FOXO3; 10 uM, experiment 3, with & without H2O2): Partial; FOXO3-dependency for H2O2-resistance (experiment 3) (FOXO3; 10 uM, with & without H2O2, FOXO3 knockdown in WI-38 cells, YES = resistance reduced by at least 50%, partial = 25% to 50%): Partial; Requirement of FOXO3 to promote H2O2-resistance (FOXO3; FOXO3 siRNA, at least 2 of 3 independent experiments): not FOXO3"
CCc1ccc(Oc2nc3ccccn3c(=O)c2/C=C(\C#N)C(=O)NC2CCCCC2)cc1 [Gr-5A],25.8,-1.4,–,-8.3,25.8,-1.4,-8.3,0,0,105,115,127,147,548,0,0,0,0,0,0,–
CCc1ccc(Oc2nc3ccccn3c(=O)c2/C=C(\C#N)C(=O)NCc2ccco2)cc1 [Gr-5B],37.2,2,–,1.7,37.2,2,1.7,0,0,100,128,168,223,540,0,0,0,0,0,0,–
CNC(=O)/C(C#N)=C/c1c(Oc2ccc(C(C)(C)C)cc2)nc2ccccn2c1=O [Gr-5D],29.5,5.8,–,-5.3,29.5,5.8,-5.3,0,0,94.1,75,112,145,480,0,0,0,0,0,0,–
Cc1cc(N)n(-c2ccccc2C(=O)O)n1 [Gr-6A],5.5,6.8,-2.7,16.9,5.5,6.8,16.9,0,0,117,59.9,200,138,–,0,0,0,0,0,0,ILS at 66 µM (C. elegans; [10]): -2.7%
O=C(/C=C/c1cn(-c2ccccc2)nc1-c1cccnc1)c1ccccc1 [Gr-6B],3,0.2,-1.3,20.6,3,0.2,20.6,0,0,93.4,112,136,176,272,0,0,1,1,0,0,"ILS at 66 µM (C. elegans; [10]): -1.3%; Viability of PC12 cells upon induction of toxic poly(Q)103-Htt-EGFP aggregates ([2]; 2.5 μM, 5 μM, 10 μM and 20 μM): consistently increased the viability; Assay 20: Huntington's poly-Q toxicity attenuation ([2]; 10 uM, YES/NO): YES"
